The nature of test [1]: Inhibition of alpha-fucosidase.
A short description of test [2]: Inhibition of alpha-glucosidase.
Test [3] is described as follows: Inhibition of beta-glucosidase.
Test [4] can be described thus: Inhibition of alpha-mannosidase.
Test [5] is described as follows: Inhibition of alpha-galactosidase.
Test [6] in a line: Inhibition of beta-mannosidase.
Test [7] in a line: Inhibition of beta-galactosidase.

The values below come from ChEMBL document CHEMBL1287753, “Synthesis of all-cis 2,5-imino-2,5-dideoxy-fucitol and its evaluation as a potent fucosidase and galactosidase inhibitor” (Bioorg Med Chem Lett, 2010).

The Ki is a dissociation constant, usually derived from enzyme kinetics or from competition with a known ligand. On to `C[C@@H]1N[C@H](CO)[C@H](O)[C@@H]1O`, for which, in test [1] (read-out: Ki), the Ki came to 0.0049 µM.
For orientation: IC50 means the concentration at which inhibition is half-maximal. A lower IC50 goes with greater potency in that assay. As to `C[C@H]1N[C@H](CO)[C@@H](O)[C@H]1O`, the Ki entry in test [2] is “Not Active”; in test [4], “Not Active”; in test [1] (read-out: Ki), 1000 µM. For the same compound, the IC50 in test [3] turned out to be 100 µM; in test [5], 2000 µM.
For the compound `C[C@@H]1N[C@@H](CO)[C@H](O)[C@@H]1O`, the Ki in test [1] (read-out: Ki) came to 0.08 µM.
On to `C[C@@H]1N[C@@H](CCO)[C@H](O)[C@@H]1O`, for which the IC50 was over 100 µM in test [2]; over 1000 µM in test [3]; over 1000 µM in test [4]; over 1000 µM in test [6]; over 1000 µM in test [5]; over 1000 µM in test [7]. For the same compound, in test [1] (read-out: Ki), the Ki worked out at 0.008 µM.
On to `C[C@H]1N[C@H](CO)[C@H](O)[C@@H]1O`, for which the Ki entry in test [2] is “Not Active”; in test [4] (read-out: Ki) it was 53 µM; in test [5], 5 µM; in test [1] (read-out: Ki), 9 µM. Moreover, inhibition in test [3] was half-maximal at 1200 µM (IC50).
Regarding `OC[C@H]1NC[C@@H](O)[C@H]1O`, the Ki result in test [2] and in test [1] was “Not Active” throughout. In addition, the IC50 in test [3] was 350 µM; in test [4] it was 14 µM; in test [5], 0.2 µM; in test [7] it was 140 µM.
As for `C[C@@H]1NC[C@H](O)[C@@H]1O`, the Ki in test [1] (read-out: Ki) worked out at 0.05 µM.
Take `C[C@H]1N[C@@H](CO)[C@@H](O)[C@H]1O` (racemic): the IC50 in test [2] is over 100 µM; in test [3], over 1 µM; in test [4] it was over 1000 µM; in test [6] it was over 1000 µM. In addition, the Ki in test [5] was 3 µM; in test [7], 53 µM; in test [1] (read-out: Ki), 0.015 µM.
